Source: patent US7960352B2, “Anti-cancer activity of Androsace umbellata Merr. extract and contained triterpene saponin” (Sungkyunkwan University Foundation for Corporate …, priority 2005, dated 2011)
Converted amounts (≈) assume the structure as drawn.

Experiments:
[1] = system: HeLa (uterine cancer cells); assay: Inhibition of growth of tumor cells (SRB assay), HeLa; assay type: cell-based; details: 0.01-100 μg/mL, cultured 48 hours
Experimental: (§1) Cells were cultured in Dulbecco's modified Eagle's medium (hereunder referred to as DMEM) containing 5-10% fetal bovine serum and L-glutamine in an incubator of 37° C. and 5% CO2. Adherent cells were suspended using a trypsin-EDTA solution and isolated and collected for testing.
(§2) The cells were cultured on a 96-well plate, 5×10^3-10^4 cells each. After treating with the extract and the active ingredient at a concentration of 0, 0.01, 0.1, 1, 10 and 100 μg/mL, the cells were cultured for 48 hours. After culturing for […], the culture medium was removed from each well and 200 μL of 10% TCA (trichloroacetic acid) was added. The cells were fixed to the bottom of the plate by letting alone at 4° C. for 1 hour. After fixation, the plate was washed with distilled water for 5-6 times to remove the remaining TCA solution and then completely dried. To the plate was added 200 μL of a staining solution per each well, which was prepared by dissolving 0.4% SRB solution in 1% acetic acid solution. After 30 minutes' staining, the plate was washed with 1% acetic acid solution for 5-6 times to remove excess SRB. The plate was dried at room temperature and 200 μL of 10 mM trisma base solution (unbuffered) was added per each well. After 10 minutes' of shaking using a titer plate shaker to elute out the staining solution, light absorbance was measured at 540 nm using a microplate reader.

A549 (lung cancer cells) = assay: Inhibition of growth of tumor cells (SRB assay), A549; assay type: cell-based; details: 0.01-100 μg/mL, cultured 48 hours
Experimental: as §1, §2

[2] = system: MCF7 (breast cancer cells); assay: Inhibition of growth of tumor cells (SRB assay), MCF7; assay type: cell-based; details: 0.01-100 μg/mL, cultured 48 hours
Experimental: as §1, §2

[3] = system: MDA-MB-231 (breast cancer cells); assay: Inhibition of growth of tumor cells (SRB assay), MDA-MB-231; assay type: cell-based; details: MDA-MB-231 cells, 0.01-100 μg/mL, cultured 48 hours
Experimental: as §1, §2

[4] = system: HCT15 (colon cancer cells); assay: Inhibition of growth of tumor cells (SRB assay), HCT15; assay type: cell-based; details: cultured 48 hours; for Inhibitory effect against growth of cancer cells IC50 HCT15: 0.01-100 μg/mL
Experimental: as §1, §2

SK-OV-3 (cancer cells) = assay: Inhibition of growth of tumor cells (SRB assay), SK-OV-3; assay type: cell-based; details: Homo sapiens, SK-OV-3 cells, 0.01-100 μg/mL, cultured 48 hours, read-out: Inhibitory effect against growth of cancer cells IC50 SK-OV-3
Experimental: as §1, §2

mice [5] = assay: Toxicity test, intraperitoneal injection to mice; assay type: in vivo; details: for Mice died: intraperitoneal, 20 mg/kg, 10 mice per group, observed 7 days; for Cause of the death of the mice: right after the intraperitoneal injection
Experimental: (§3) Toxicity test was performed as follows for the Androsace umbellata Merr. extract, fraction thereof and saxifragifolins B and D of the present invention.
(§4) Each of the Androsace umbellata Merr. extract, fraction thereof and saxifragifolins D and B was dissolved in 1% sodium carboxymethlycellulose and diluted with water. The solution was intraperitoneally injected to mice (10 per each group) at a dose of 0, 0.016, 0.8, 4, 20 and 100 mg/kg. […] No mouse died in the Androsace umbellata Merr. extract group. All the 10 mice of the 100 mg/kg Androsace umbellata Merr. fraction group died right after the administration and two died in the 20 mg/kg group. 3 mice died in each of the 20 mg/kg saxifragifolin B and saxifragifolin D groups. No more mice died until the 7th day. […] When the Androsace umbellata Merr. extract, fraction thereof and saxifragifolins D and B were dissolved in corn oil and orally administered at a dose of 1, 10 and 100 mg/kg, no mice died for 7 days.

[6] = system: SK-OV-3 (uterine cancer cells); assay: Inhibition of growth of tumor cells (SRB assay), SK-OV-3; assay type: cell-based; details: SK-OV-3 cells, 0.01-100 μg/mL, cultured 48 hours
Experimental: as §1, §2

mice [7] = assay: Toxicity test, oral administration to mice; assay type: in vivo; details: orally, in corn oil, 1, 10 and 100 mg/kg, 7 days
Experimental: as §3, §4

IC50 ([1]; Homo sapiens, read-out: Inhibitory effect against growth of cancer cells IC50 HeLa) | IC50 (A549 (lung cancer cells); Homo sapiens, read-out: Inhibitory effect against growth of cancer cells IC50 A549) | IC50 ([2]; Homo sapiens, read-out: Inhibitory effect against growth of cancer cells IC50 MCF7) | IC50 ([3]; Homo sapiens, read-out: Inhibitory effect against growth of cancer cells IC50 MDA-MB-231) | IC50 ([4]; Homo sapiens, HCT-15, 0.01-100 μg/mL, read-out: Inhibitory effect against growth of cancer cells IC50 HCT15) | IC50 (SK-OV-3 (cancer cells)) | Compound | Inhibitory effect against growth of cancer cells IC50 HeLa [1] | Inhibitory effect against growth of cancer cells IC50 A549 (A549 (lung cancer cells)) | Inhibitory effect against growth of cancer cells IC50 MCF7 [2] | Inhibitory effect against growth of cancer cells IC50 MDA-MB-231 [3] | Inhibitory effect against growth of cancer cells IC50 HCT15 [4] | Mice died (mice [5]) | Cause of the death of the mice (mice [5]) | Inhibitory effect against growth of cancer cells IC50 SK-OV-3 [6] | Mice died (mice [7])
0.21 ± 0.01 µg/mL (≈ 0.386 µM) | 0.011 ± 0.01 µg/mL (≈ 0.0202 µM) | 0.5 ± 0.02 µg/mL (≈ 0.92 µM) | 0.02 ± 0.01 µg/mL (≈ 0.0368 µM) | 0.014 ± 0.02 µg/mL (≈ 0.0258 µM) | 0.77 ± 0.03 µg/mL (≈ 1.42 µM) | COc1cccc2c1C(=O)c1c(O)c3c(c(O)c1C2=O)C[C@@](O)(C(=O)CO)C[C@@H]3O[C@H]1C[C@H](N)[C@H](O)[C@H](C)O1 [Doxorubicin, reference compound] |  |  |  |  |  |  |  |  | 
 |  |  |  |  |  | cyclamiretin A 3-O-{β-D-glucopyranosyl-(1→4)-β-D-glucopyranosyl-(1→2)-β-D-xylopyranosyl-(1→2)-β-D-glucopyranosyl-(1→4)-α-L-arabinopyranoside} [Saxifragifolin D] | 0.98 ± 0.05 µg/mL | 0.016 ± 0.01 µg/mL | 3.23 ± 0.10 µg/mL | 1.32 ± 0.03 µg/mL | 0.558 ± 0.24 µg/mL | 3 mice | hemolysis of red blood cells | 6.36 ± 0.12 µg/mL | no mice died
 |  |  |  |  |  | cyclamiretin A 3-O-{β-D-xylopyranosyl-(1→2)-β-D-glucopyranosyl-(1→4)-β-D-glucopyranosyl-(1→2)-α-L-arabinopyranoside} [Saxifragifolin B] | 1.22 ± 0.04 µg/mL | 0.036 ± 0.02 µg/mL | 6.88 ± 0.13 µg/mL | 3.02 ± 0.02 µg/mL | 0.183 ± 0.17 µg/mL | 3 mice | hemolysis of red blood cells | 8.39 ± 0.23 µg/mL | no mice died
